The source of these data is US11753418B2, “Compounds for the modulation of Myc activity” (Syros Pharmaceuticals, Inc., priority 2015, dated 2023).

As a reminder, the IC50 is the concentration at which inhibition is half-maximal. A higher IC50 goes with weaker potency.

For one assay, the target named is T1, c-Myc/Max/Ebox DNA (Homo sapiens, UniProt P01106).
T1 construct: his6 (cleaved yes)
The experiment in a line: c-Myc/Max/Ebox DNA AlphaScreen Assay. The class given is binding. To be noted: free c-Myc 20 nM, his6-Max 5 nM, biotinylated Ebox oligo 10 nM, 2 hour incubation. How it is done:
Compounds of the invention were assayed for c-Myc/Max/EBox activity as described in the following protocol. Human his6-c-Myc and his6-Max were used with biotinylated DNA containing a single Ebox sequence (biotin[…]) purchased from MWG Operon. Free c-Myc was generated from his6-c-Myc through thrombin cleavage of the his6 tag. For 384-well plate assays, 10 μL of a 2× solution of free c-Myc (20 nM final), Ni^2+ coated Acceptor Beads (25 μg/ml final), and biotinylated Ebox oligo (10 nM final) were added to 384-well plates with a Biotek EL406 liquid handler. 50 nL of compounds from stock plates were added by pin transfer using a Janus Workstation (PerkinElmer), allowing the compounds to interact with c-Myc prior to c-Myc binding with Max. In the current assay, DMSO was not allowed to exceed 2% v/v of the assay. 10 μl of 2× master mix containing streptavidin-coated donor beads (25 μg/ml final) and his6-Max (5 nM) were added. AlphaScreen measurements were performed on an Envision plate reader (PerkinElmer) utilizing the manufacturer's protocol.
Both master mixes were made in room temperature assay buffer (50 mM HEPES, 150 mM NaCl, 0.2% w/v BSA, 0.02% w/v Tween20, 40 μg/ml glycogen, 500 μM DTT, pH 8.0, wherein both DTT and glycogen were added fresh). Alpha beads were added to respective master solutions. All subsequent steps were performed in low light conditions. Solution 1: 2× solution of components with final concentrations of c-Myc Ni-coated Acceptor Beads (25 μg/ml), and biotinylated Ebox oligo (10 nM). Solution 2: 2× solution of streptavidin-coated donor beads (25 μg/ml final) and his6-Max […]. Solution 1 was added to 384-well plate (AlphaPlate-384, PerkinElmer) with Biotek EL406 liquid handler and the plates were centrifuged very briefly. 50 nL of compounds from stock plates were added by pin transfer using a Janus Workstation. Solution 2 (10 μL) was added with the liquid handler. Plates were sealed with foil to block light exposure and prevent evaporation. Plates were very briefly centrifuged followed by 2 hour incubation. AlphaScreen measurements were performed on an Envision 2104 utilizing the manufacturer's protocol. Excitation was at 680 nm for donor bead release of singlet oxygen and emission was read with a bandpass filter from 520-620 nm. Glycogen: Roche Diagnostics #10901393001. Plate 1536: Perkin Elmer, 6004350. Plate 384: Perkin Elmer, 6005350. Nickel-His Alpha Beads: 6760619R. The data from this assay are summarized in Table 3 below (Myc/Max/DNA Activity).
In general terms: In Alpha technology, singlet oxygen from a donor bead excites a nearby acceptor bead.

The subject of assay [1] is human small lung cancer cell line H2171. Put plainly: Cell Viability Assay (ATPlite). To be noted: NCI-H2171, 72 h, H2171 cells, incubated for three days, ATPlite readout. In kind it is cell-based. Here is the method:
Compounds of the invention were assayed for cell viability using the human small lung cancer cell line H2171 as described in the following protocol. Cells were counted and adjusted to 20,000 cells/mL. Using a Biotek EL406, 50 μL of cells in media were distributed into 384 well white plates from Thermo. Immediately after plating, compound in DMSO was distributed to plates. Compounds were added to plates using a 50 nL 384 well pin transfer manifold on a Janus workstation. Stocks were arrayed in 10 point dose response in DMSO stock in 384 well Greiner compound plates. After the addition of compounds, plates were incubated for three days in a 37° C. incubator. Cell viability was read out using ATPlite from Perkin Elmer. Lyophilized powder was resuspended in lysis buffer and diluted 1:2 with deionized water. 25 μL of this solution was added to each well using the Biotek liquid handler. Plates were incubated for 15 minutes at room temperature before signal was read on an Envision Plate Reader. The data from this assay are summarized in Table 3 below (H2171 activity).
(Cellular ATP, detected with luciferase, serves as a proxy for viable cell number.)

Counter-ions that a name gives are not always drawn.

T1 sequence (P01106 whole entry): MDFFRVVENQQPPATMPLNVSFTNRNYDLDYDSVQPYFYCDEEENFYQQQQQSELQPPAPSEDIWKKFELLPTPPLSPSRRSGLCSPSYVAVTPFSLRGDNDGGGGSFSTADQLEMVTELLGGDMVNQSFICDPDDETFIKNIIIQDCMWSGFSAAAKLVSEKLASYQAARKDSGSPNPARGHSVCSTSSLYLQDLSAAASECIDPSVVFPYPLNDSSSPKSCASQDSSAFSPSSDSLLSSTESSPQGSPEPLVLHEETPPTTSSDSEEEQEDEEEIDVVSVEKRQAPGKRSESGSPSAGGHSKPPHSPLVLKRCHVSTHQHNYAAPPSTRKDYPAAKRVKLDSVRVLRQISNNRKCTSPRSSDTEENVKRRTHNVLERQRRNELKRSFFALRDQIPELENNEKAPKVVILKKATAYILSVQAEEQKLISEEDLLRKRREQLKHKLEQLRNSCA

`CCC(C)NCCC(=O)Nc1sc2c(c1-c1nc3cnccc3s1)CCNC2` (stereo not drawn) [Compound 103, 3-(sec-butylamino)-N-(3-(thiazolo[4,5-c]pyridin-2-yl)-4,5,6,7-tetrahydrothieno[2,3-c]pyridin-2-yl)propanamide]: the IC50 (at c-Myc/Max/Ebox DNA; in assay [1]) was less than 500 nM in each case.
In the case of `CC(=O)Nc1sc2c(c1-c1nc3cnccc3s1)CCN(C(C)CN1CCOCC1)C2` (stereo not drawn) [Compound 105, N-(6-(1-morpholinopropan-2-yl)-3-(thiazolo[4,5-c]pyridin-2-yl)-4,5,6,7-tetrahydrothieno[2,3-c]pyridin-2-yl)acetamide], the half-maximal inhibitory concentration (IC50) (against c-Myc/Max/Ebox DNA; in assay [1]) was 500 to 5000 nM each time.
Turning to `CC(=O)Nc1sc2c(c1-c1nc3c(C(F)F)nccc3s1)CCNC2` [Compound 106, N-[3-[4-(difluoromethyl)thiazolo[4,5-c]pyridin-2-yl]-4,5,6,7-tetrahydrothieno[2,3-c]pyridin-2-yl]acetamide], the IC50 (at c-Myc/Max/Ebox DNA; in assay [1]) was less than 500 nM in each case.
Regarding `CC(=O)Nc1sc2c(c1-c1nc3cnccc3s1)C(C)CN(C(C)C)C2` (stereo not drawn) [Compound 107, N-(6-isopropyl-4-methyl-3-(thiazolo[4,5-c]pyridin-2-yl)-4,5,6,7-tetrahydrothieno[2,3-c]pyridin-2-yl)acetamide], the IC50 (against c-Myc/Max/Ebox DNA; in assay [1]) was 500 to 5000 nM in each case.
Regarding `CC(=O)Nc1sc2c(c1-c1nc3c[n+]([O-])ccc3s1)CCNC2` [Compound 108, 2-(2-acetamido-4,5,6,7-tetrahydrothieno[2,3-c]pyridin-3-yl)thiazolo[4,5-c]pyridine 5-oxide], the IC50 (at c-Myc/Max/Ebox DNA; in assay [1]) was 500 to 5000 nM in each case.
With `CC(=O)Nc1sc2c(c1-c1nc3cnccc3s1)CCC(N)C2` (stereo not drawn) [Compound 113, N-(6-amino-3-(thiazolo[4,5-c]pyridin-2-yl)-4,5,6,7-tetrahydrobenzo[b]thiophen-2-yl)acetamide], the half-inhibitory concentration (IC50) at c-Myc/Max/Ebox DNA is 500 to 5000 nM; in assay [1] it was less than 500 nM.
Take `CC(=O)Nc1sc2c(c1-c1nc3cnccc3s1)CCN(C)C2` [Compound 114, N-(6-methyl-3-(thiazolo[4,5-c]pyridin-2-yl)-4,5,6,7-tetrahydrothieno[2,3-c]pyridin-2-yl)acetamide]: the IC50 (against c-Myc/Max/Ebox DNA; in assay [1]) was 500 to 5000 nM throughout.
With `CCC(C)NCCC(=O)Nc1sc2c(c1-c1nc3cnccc3s1)CCN(C(C)C)C2` (stereo not drawn) [Compound 116, 3-(sec-butylamino)-N-(6-isopropyl-3-(thiazolo[4,5-c]pyridin-2-yl)-4,5,6,7-tetrahydrothieno[2,3-c]pyridin-2-yl)propanamide dihydrochloride], the IC50 (at c-Myc/Max/Ebox DNA; in assay [1]) was less than 500 nM each time.
As to `CCN1C(C)Cc2c(sc(NC(C)=O)c2-c2nc3cnccc3s2)C1C` (stereo not drawn) [Compound 117, N-(6-ethyl-5,7-dimethyl-3-(thiazolo[4,5-c]pyridin-2-yl)-4,5,6,7-tetrahydrothieno[2,3-c]pyridin-2-yl)acetamide], the IC50 (on c-Myc/Max/Ebox DNA; in assay [1]) was 500 to 5000 nM throughout.
On to `CC(=O)Nc1sc2c(c1-c1nc3c(C)nccc3s1)CCNC2` [Compound 118, N-(3-(4-methylthiazolo[4,5-c]pyridin-2-yl)-4,5,6,7-tetrahydrothieno[2,3-c]pyridin-2-yl)acetamide], for which the 50% inhibitory concentration (IC50) (on c-Myc/Max/Ebox DNA; in assay [1]) was less than 500 nM throughout.
Consider `CCN1[C@H](C)Cc2c(sc(NC(C)=O)c2-c2nc3cnccc3s2)[C@H]1C` [Compound 119, N-((5R,7R)-6-ethyl-5,7-dimethyl-3-(thiazolo[4,5-c]pyridin-2-yl)-4,5,6,7-tetrahydrothieno[2,3-c]pyridin-2-yl)acetamide], for which the IC50 (against c-Myc/Max/Ebox DNA; in assay [1]) was less than 500 nM each time.
Turning to `CC[C@H](C)NCCC(=O)Nc1sc2c(c1-c1nc3cnccc3s1)CCNC2` [Compound 122, (S)-3-(sec-butylamino)-N-(3-(thiazolo[4,5-c]pyridin-2-yl)-4,5,6,7-tetrahydrothieno[2,3-c]pyridin-2-yl)propanamide], the IC50 (against c-Myc/Max/Ebox DNA; in assay [1]) was less than 500 nM in each case.
